In data set [1] the test system is co-culture model with Caco-2 and HT29-MTX. Nature of the data set: 3D intestinal permeability assay (co-culture, HPLC-MS of basolateral samples). The conditions noted are these: for Permeability (%): 3D intestinal model, compound of kiwiberry leaf extract; for permeation in the 3D intestinal model: time not stated; for permeation (detection after the 3D intestinal permeation assay): aglycones, result in words. The class given is in vitro ADME. How it is done:
The intestinal permeability was carried out in a co-culture model with Caco-2 and HT29-MTX [40]. The extract was added to the apical side of the model. A sample from the basolateral side was collected at different timepoints (0, 15, 30, 45, 60, 90, 120, 150, 180, and 240 min). Samples were analyzed by HPLC-MS assay (Section 3.5). The TEER of the model was evaluated before, during and at the end of the permeability assay using an EVOM Epithelial Volthometer Instrument equipped with a chopstick electrode (World Precision Instruments, Sarasota, FL, USA).
The phenolic compounds that permeated the intestinal 3D model were identified and quantified according to Silva et al.. The samples were diluted 10 times with methanol-water (50:50) and centrifuged at 13,300× […] for 15 min. The supernatant was then transferred to a vial for the LC-MS analysis. The standard calibration curves were: • Chlorogenic acid titration curve: y = 198.01x + 20.138 (R^2 = 1) • Rutin titration curve: y = 58.564x + 41.752 (R^2 = 0.9998)
Regarding the multiple reaction monitoring (MRM), the values were: • Chlorogenic acid: 353.5 > 191.2 • Rutin: 609.4 > 301.3 • Coumaroyl quinic acid: 337.3 > 191.3

Data set [2] has as its system CAT. Briefly: In vivo antioxidant parameter: CAT activity in kidney, liver, serum. Set-up: species or system Wistar rats. The conditions noted are these: 50 mg/kg bw oral once daily 7 days. As for the experimental part:
(§1) The homogenate supernatants were analyzed by biochemical assays.
(§2) The antioxidant enzyme activities, namely SOD, CAT, and GSH-Px, were evaluated in the homogenate supernatants from organs through commercial enzymatic kits from Sigma-Aldrich (Steinheim, Germany). The lipid peroxidation was determined through the determination of MDA levels using a commercial kit (Merck, Darmstadt, Germany).

Data set [3] relates to MDA. Briefly: Lipid peroxidation: MDA levels in kidney, liver, serum. The conditions noted are these: 50 mg/kg bw oral once daily 7 days. It counts as in vivo, Wistar rats. How it is done: as §1, §2
A short description of data set [4]: Serum biochemical analysis (TC, HDL-C, LDL-C, TG) after 7 days oral treatment. The class given is in vivo, Wistar rats. The conditions noted are these: 50 mg/kg bw oral once daily 7 days. How it is done: as §1
Serum was used to analyze the TC, HDL-C, and LDL-C using commercial kits from Sigma-Aldrich (Steinheim, Germany). TG levels were estimated in the blood serum through a commercial kit from Abcam (Cambridge, MA, USA).

Data set [5] deals with SOD. Nature of the data set: In vivo antioxidant parameter: SOD activity in kidney, liver, serum. Further details: species or system Wistar rats. Particulars: 50 mg/kg bw oral once daily 7 days. As for the experimental part: as §1, §2
The test system of data set [6] is GSH-Px. Nature of the data set: In vivo antioxidant parameter: GSH-Px activity in kidney, liver, serum. Further details: species or system Wistar rats. Particulars: 50 mg/kg bw oral once daily 7 days. How it is done: as §1, §2
Data set [7] deals with kidney and liver tissues. Nature of the data set: Histopathological analysis of kidney and liver (hematoxylin-eosin). Particulars: oral gavage once daily 7 days; extract 50 and 75 mg/kg bw, vitamin C 50 mg/kg bw.
Experimental: Young male Wistar rats of 5–6 weeks of age (140–207 g) were acquired from the Jackson Laboratory (Bar Harbor, ME, USA) and acclimatized in polypropylene cages to the environmental conditions (12 h dark/light cycle, controlled temperature (21 ± 2 °C), relative humidity (55 ± 10%) and fed ad libitum with standard pellet diet and water for 1 week before the experiment).
All groups were treated once daily for 7 days by oral gavage after a fasting period of 4 h. The body weight of each animal was recorded twice a week during the experimental period. Blood samples were collected from tail vein and a glucometer (Accu-Chek, Roche® Diabetes Care, Inc., Mississauga, QC, Canada) was used to measure the glucose levels.
After 7 days, the animals were sacrificed by pentobarbital overdose (50 mg/kg bw). The organs (liver and kidneys) were removed, and the blood was collected by cardiac puncture. Serum was separated by centrifugation (20,000× g, 15 min, 4 °C) and stored at −80 °C for biochemical analyses [42]. The organs were dissected from each animal and subsequently mixed with 50 mM potassium phosphate, pH 7.0, and centrifuged (20,000× g, 15 min, 4 °C), according to the kit manufacturer’s instructions. The homogenate supernatants were analyzed by biochemical assays.
The tissue samples (liver and kidney) were preserved in 10% formalin. […]

Six molecules from paper PMC9692619, “Insights into the 3D In Vitro Permeability and In Vivo Antioxidant Protective Effects of Kiwiberry Leaf Extract: A Step Forward to Human Nutraceutical Use” (International Journal of Molecular Sciences, 2022) can be followed below.

Several values for one entry are separate records, joined by “and”; a condition that tells them apart may be missing. Identical values can stand only once. Marks after values point to notes of the source that are not given here.

For `O=C(/C=C/c1ccc(O)cc1)O[C@@H]1C[C@](O)(C(=O)O)C[C@@H](O)[C@H]1O` [Coumaroyl quinic acid], the “Permeability (%)” value in data set [1] (15 min) is given as 1.04 ± 0.05%; in data set [1] (30 min), 18.81 ± 0.94%; in data set [1] (45 min), 7.99 ± 0.39%; in data set [1] (60 min) it was 13.50 ± 0.68%; in data set [1] (90 min) it was 19.74 ± 0.99%; in data set [1] (120 min), 14.60 ± 0.73%. Moreover, the “Permeability (%)” value stood at 24.32 ± 1.22% in data set [1] (180 min); 34.23% in data set [1] (240 min); 34.23 ± 1.71% in data set [1] (240 min, listed as Coumaroyl Quinic Acid). The “permeation in the 3D intestinal model” value in data set [1] is recorded as “higher than 25%”.
On to `C[C@@H]1O[C@@H](OC[C@H]2O[C@@H](Oc3c(-c4ccc(O)c(O)c4)oc4cc(O)cc(O)c4c3=O)[C@H](O)[C@@H](O)[C@@H]2O)[C@H](O)[C@H](O)[C@H]1O` [Rutin], for which the “Permeability (%)” value in data set [1] (15 min) was 6.67 ± 0.33%; in data set [1] (15 min, listed as rutin) it was 6.67%; in data set [1] (30 min), 10.89 ± 0.54%; in data set [1] (45 min) it was 17.01 ± 0.85%; in data set [1] (60 min), 14.61 ± 0.73%; in data set [1] (90 min), 14.56 ± 0.73%. The “Permeability (%)” value in data set [1] (120 min) is reported as 18.50 ± 0.93%; in data set [1] (180 min) it was 18.30 ± 0.92%; in data set [1] (240 min), 25.40 ± 1.27%; in data set [1] (240 min, listed as rutin), 25.40%. Moreover, the “permeation in the 3D intestinal model” value in data set [1] is “higher than 25%”.
`O=C(/C=C/c1ccc(O)c(O)c1)O[C@@H]1C[C@](O)(C(=O)O)C[C@@H](O)[C@H]1O` [Chlorogenic acid]: the “Permeability (%)” value in data set [1] (15 min) is reported as “<LOD”; in data set [1] (30 min) it was 1.79 ± 0.09%; in data set [1] (45 min), “<LOD”; in data set [1] (60 min), “<LOD”; in data set [1] (90 min) it was “<LOD”; in data set [1] (120 min), “<LOD”. Further, the “Permeability (%)” value is recorded as “<LOD” in data set [1] (180 min); 2.49% in data set [1] (240 min); 2.49 ± 0.13% in data set [1] (240 min, listed as Chlorogenic Acid).
For the molecule `O=c1c(O)c(-c2ccc(O)c(O)c2)oc2cc(O)cc(O)c12` [quercetin], the “permeation (detection after the 3D intestinal permeation assay)” value in data set [1] is recorded as “absence of permeation”.
As to `O=c1c(O)c(-c2ccc(O)cc2)oc2cc(O)cc(O)c12` [kaempferol], the “permeation (detection after the 3D intestinal permeation assay)” value in data set [1] is “absence of permeation”.
As for `O=C1O[C@H]([C@@H](O)CO)C(O)=C1O` [vitamin C], in data set [2], the “CAT, Kidneys” value is listed as 427,496 ± 78,015 ^b nmol/min/g protein; the “CAT, Liver” value is recorded as 3,762,450 ± 434,242 ^c nmol/min/g protein; the “CAT, Serum” value is recorded as 34,911 ± 7975 ^b nmol/min/mL protein. Also, in data set [3], the “MDA, Kidneys” value is 196,748 ± 31,125 ^a nmol/g protein; the “MDA, Liver” value is on record as 145,827 ± 10,063 ^b nmol/g protein; the “MDA, Serum” value is 746.79 ± 123.55 ^b nmol/mL protein. In data set [4], the HDL-C is 155.09 ± 37.71 mg/dL, the LDL-C is 76.24 ± 16.52 mg/dL and the TG is reported as 229.76 ± 33.54 ^a mg/dL. Also, the TC in data set [4] (50 mg/kg) is 79.81 mg/dL and 79.81 ± 15.11 mg/dL. For the same molecule, in data set [5], the “SOD, Kidneys” value is 123.13 ± 19.27 ^b,c units/g protein; the “SOD, Liver” value is on record as 83.71 ± 6.06 ^b units/g protein; the “SOD, Serum” value is recorded as 79.20 ± 5.76 ^b units/mL protein. Also, in data set [6], the “GSH-Px, Kidneys” value is 136.66 ± 19.62 ^b units/g protein; the “GSH-Px, Liver” value is 71.34 ± 10.94 ^b,c units/g protein; the “GSH-Px, Serum” value was 20.16 ± 5.29 ^b units/mL protein. In addition, the “histopathological examination of kidneys” value in data set [7] is listed as “did not lead to morphological alterations”.
